# Experiments:
# 6 Hz-induced seizures = assay: 6 Hz seizure test in mice with isobolographic analysis; assay type: in vivo; conditions: for ED50add ± SEM: drug administered alone, i.p., 30 min before the test, NMRI mice; for anticonvulsant effects against 6 Hz seizure: mice
# Description: According and Deckers et al. (2000) an isobolographic method used and evaluate interactions among AEDs is considered and be the optimal method for detecting synergy, additivity or antagonism among AEDs in animal models of epilepsy, such as the 6 Hz seizure model in mice. For isobolographic analysis, the experimental (EDmix) and theoretical additive (EDadd) ED50 values are determined from the dose-response curves of combined drugs. ED50 is defined as a dose of a drug protecting 50% of the animals against 6 Hz-induced seizures. ED50mix is an experimentally determined total dose of the mixture of two component drugs, which were administered in the fixed-ratio combination sufficient for a 50% protective effect. Conversely, ED50add represents a total additive dose of two drugs (calculated from the line of additivity), theoretically providing 50% protection against seizures.
# The term “interaction index a” refers and the ratio of ED50mix/ED50add. This ratio seems and be a good describer of the strength of interaction between two AEDs in isobolographic analysis (Luszczki et al., 2003; Berenbaum, 1989; Tallarida et al., 1999; Tallarida, 2001, 2002). If ED50mix=ED50add, then α=1. Small derivations of a from 1 may not be considered as significant. If a is smaller than 0.7, this may indicate a synergistic effect. If the index is larger than 1.3, this may indicate an antagonistic effect, and if the index is in between this may indicate purely additive interaction (Luszczki et al., 2003; Kerry et al., 1975; Bourgeois, Wad, 1984, 1988; Bourgeois, 1988).
# According and Deckers et al. (2000) an isobolographic method is used to evaluate interactions among AEDs and it is considered to be the optimal method for detecting synergy, additivity or antagonism among AEDs in animal models of epilepsy. The 6 Hz seizure model was performed as previously described (Kaminski et al., 2004). Briefly, mice were stimulated through corneal electrodes connected to an electrical stimulator (ECT Unit 5780, Ugo-Basile, Comerio, Italy) delivering a constant current (0.2 ms duration monopolar rectangular pulses at 6 Hz for 3 s). A drop of saline containing 0.4% oxybuprocaine hydrochloride (Unicaine, Thea, France) was applied on the eyes before stimulation and provide local anesthesia and ensure optimal current conductivity. During the stimulation, each mouse was manually restrained then gently released into the observation cage (38×26×14 cm) immediately after the current application. The seizures were often preceded by a brief period (˜2-3 s) of locomotor agitation (running and jumping). […] The main seizure endpoint was the duration of the immobility. Mice resuming normal behavior within 7 s after the end of the stimulation were considered as not displaying seizure behavior.
# The experiments were performed on adult male NMRI mice (Charles River, France) weighing between 24 and 36 g. The mice were kept in colony cages with free access and food and water, under standard laboratory conditions with natural light-dark cycle. After 1 week adaptation the animals were randomly assigned and experimental groups consisting of ten mice. Each mouse was used only once. All experiments were performed between 9 am and 4 pm. Procedures involving animals and their care were conducted in accordance with current European Community regulations.
# Fresh drug solutions were prepared ex tempore on each day of experimentation. These pretreatment times before testing of BRV/LCM were based on information about their biologic activity from the literature.
# The isobolographic analysis is based on a comparison of equieffective drug doses. In the present study, interactions between drugs, as regards their anticonvulsant efficacy against 6 Hz seizure test were evaluated isobolographically according and the procedure elaborated by Tallarida (1992); Porreca et al. (1990); Luszczki et al. (2006). […]
# [1] = test system: secondarily generalized seizures in fully amygdala-kindled rats; assay: Amygdala kindling in rats; assay type: in vivo; conditions: for Protection n/N / Seizure score Mean ± SEM: oral; for Seizure score Mean ± SEM: Racine's scale
# anti-convulsive effect = conditions: published values; cited from earlier work
# [2] = clinical population pharmacokinetic analysis; cited from earlier work
# 6 Hz seizures = conditions: determined in the anticonvulsant drug screening program of NINDS; cited from earlier work
# [3] = 20 mg/kg alone, 1 h before stimulation, protected against secondarily generalized seizures
# [4] = 40 mg/kg alone, 1 h before stimulation
# [5] = 20 mg/kg alone, 1 h before stimulation
Compound,ED50add ± SEM (6 Hz-induced seizures) [mg/kg],anticonvulsant effects against 6 Hz seizure (6 Hz-induced seizures; drug alone),"Protection n/N [1, 3]","Protection n/N [1, 4]","Seizure score Mean ± SEM [1, 5]",Seizure score Mean ± SEM ([1]; 40 mg/kg alone),"effect on the protection of animals against secondarily generalized seizures or seizure score ([1]; alone, 20 or 40 mg/kg)",ED50 (anti-convulsive effect),effect on plasma levels of the other drug [2],"ED50 (6 Hz-induced seizures; Mus musculus, protection of mice against 6 Hz seizures, drug alone) [mg/kg]","anticonvulsant effects against 6 Hz seizure (6 Hz-induced seizures; drug alone, listed as LCM)","Protection n/N ([1]; 60 mg/kg alone, 1 h before stimulation)",Seizure score Mean ± SEM ([1]; 60 mg/kg alone),"effect on the protection of animals against secondarily generalized seizures or seizure score ([1]; alone, 20, 40 and 60 mg/kg)",ED50 (6 Hz seizures) [mg/kg]
"CCC[C@@H]1CC(=O)N([C@@H](CC)C(N)=O)C1 [Brivaracetam, (2S)-2-((4R)-2-oxo-4-n-propyl-1-pyrrolidinyl) butanamide]",14.2 ± 1.1,dose-dependent anticonvulsant effects,1/8,1/8,4.25 ± 0.41,4.63 ± 0.38,did not produce any significant effect,about 50 mg/day,no evidence for any effect,–,–,–,–,–,–
"COC[C@@H](NC(C)=O)C(=O)NCc1ccccc1 [Lacosamide, R-2-acetamido-N-benzyl-3-methoxypropionamide]",8.8 ± 1.1,dose-dependent anticonvulsant effects,0/8,1/8,4.75 ± 0.16,4.38 ± 0.50,–,about 280 mg/day,–,8.8,fully protected,0/8,4.38 ± 0.26,did not have any significant effect,9.9
